Experimental data taken from patent US8609067B2, “Method of measuring propulsion in lymphatic structures” (Board of Regents of the University of Texas System, priority 2006, dated 2013).

System: swine hindlimb vessel
Test: Staining of lymph vessels with HA-NIR molecule
Format: in vivo
Protocol: Four, two-month old, 60 lb white Yorkshire swine (K Bar Livestock, HC 69 Box 270 Sabinal, Tex.) were imaged using protocols which were approved by the Baylor College of Medicine Institutional Animal Care and Use Committee. The animals were anesthetized, intubated, and maintained with isoflurane. Animal body temperature was maintained at 100° F. using a warming blanket. At the end of the procedure, the animals were euthanized and lymph nodes resected with fluorescence guidance.
Continuous-wave optical imaging of the fluorescent NIR dyes was performed with a custom built intensified charged-coupled device (CCD). Reynolds J S, Troy T L, and Sevick-Muraca E M. Multipixel techniques for frequency-domain photon migration imaging. Biotechnol Prog 13: 669-680, 1997, incorporated herein by reference in its entirety for all purposes. Briefly, the device had three principal components: 1) a NIR-sensitive image intensifier (model FS9910C ITT Night Vision, Roanoke, Va.); 2) a 16-bit dynamic range, frame transfer CCD camera (Roper Scientific, Tucson, Ariz.); and 3) a 785-nm laser diode (Thorlabs) used to provide the excitation light for activating ICG and hyaluronan-NIR. The 785-nm laser diode beam was expanded by using a planoconvex lens and a holographic optical diffuser such that approximately 0.08 m^2 of the swine's body was illuminated. A 785-nm holographic notch band rejection filter (model HNPF-785.0-2.0, Kaiser Optical Systems, Ann Arbor, Mich.) and an 830-nm image quality bandpass filter (model 830.0-2.0, Andover, Salem, N.H.) were placed before the 28-mm Nikkor lens (Nikon) to selectively reject the excitation light and pass the emitted 830-nm wavelength. A total of 400 to 1,000 images with 512×512 resolution and 200 ms exposure time were acquired enabling near-real time visualization of ICG trafficking. For image registration, white light images were acquired by replacing the holographic and bandpass filters with a neutral density filter and illuminating the surface of the swine with a low-power lamp. […]

SMILES: CC1(C)C(/C=C/C=C/C=C/C=C2\N(CCCCS(=O)(=O)O)c3ccc4ccccc4c3C2(C)C)=[N+](CCCCS(=O)(=O)[O-])c2ccc3ccccc3c21 [ICG, indocyanine green]
- normalized fluorescent intensity in ROI as a function of time (image acquisition 6 min, swine leg lymph vessel): fluctuation and net reduction of intensity
- propulsion of packets (swine hindlimb vessel, 64 μM HA-NIR, 32 μM ICG): observed
- fluorescence intensity along the length of the vessel and with time (three-dimensional plots, swine lymph vessels): varies with time and length along the vessel
